From paper PMC5424463, “A strategy based on nucleotide specificity leads to a subfamily-selective and cell-active inhibitor of N ^6-methyladenosine demethylase FTO” (Chemical Science, 2014)

Target: T1, ALKBH5 (Homo sapiens, UniProt Q6P6C2)
T1 construct: pNIC28-Bsa4 ALKBH5 (encompassing residues 66-292); made in house; host or cells: E. coli BL21 (DE3) Rosetta T1R
Assay: HPLC-based inhibition assay for ALKBH5, m6A-ssRNA substrate
Type: biochemical
Conditions: 5-mer m6A-ssRNA substrate
Experimental: Figure S4. Enzyme inhibition curves of 12 against FTO and ALKBH5, as determined by a HPLC-based assay using m6A-containing ssRNA substrates. The substrate sequences for the FTO and ALKBH5 assays are 5’-CUUGUCA(m6A)CAGCAGA-3’ and 5’-GG(m6A)CU-3’, […]
respectively, which represents >100-fold selectivity for FTO over ALKBH5.
(1 picture or pasted object on this page, not shown here) […]
chloride) over 18 min, at a flow rate of 1 mL/min at 40°C. The UV detection wavelength was set at 266 nm. The percentage inhibition was estimated based on the peak areas of the m6A-ssRNA substrate and the corresponding demethylated product. For IC50 determination, eight […]
were then calculated from the variation in percentage demethylation at different inhibitor concentrations, using nonlinear regression, with normalized dose-response fit on GraphPad […]
HPLC-based inhibition assays for AlkB and ALKBH2
The assay was modified from previously reported method.[18] A 15-mer m1A-ssDNA substrate with the sequence 5’-AAAGCAG(m1A)ATTCGAA-3 ’ (Yale University, W.M.
Keck Foundation Biotechnology Resource Laboratory) was used in this inhibition assay. The assay was performed in triplicate for each inhibitor, in a final reaction volume of 25 µL. […]

T1 sequence (Q6P6C2 66-292): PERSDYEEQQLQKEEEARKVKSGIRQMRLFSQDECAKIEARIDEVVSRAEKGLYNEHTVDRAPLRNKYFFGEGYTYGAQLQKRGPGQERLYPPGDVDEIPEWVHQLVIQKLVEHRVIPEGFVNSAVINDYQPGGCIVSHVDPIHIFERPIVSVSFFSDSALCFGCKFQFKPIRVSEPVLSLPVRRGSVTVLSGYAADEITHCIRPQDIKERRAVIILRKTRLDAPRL

SMILES: O=C(O)/C=C/C(=O)NNC(=O)c1cnccc1Cc1ccccc1 [Compound 12]
- IC50: 96.5 µM
